Assay results from patent publication US7696186B2, “7,9-substituted tetracycline compounds” (Paratek Pharmaceuticals, Inc., priority 2001, dated 2010).

Columns and labels:
Experiment in all cases: In Vitro Minimum Inhibitory Concentration (MIC) Assay
Type in all cases: cell-based
Parameters in all cases: key: compounds which were good inhibitors of growth of a particular bacteria are indicated with *; compounds which were very good inhibitors of a particular bacteria are indicated with **; compounds with were particularly good inhibitors of a particular bacteria are indicated with ***
Conditions in all cases: CAMHB, 35° C., approximately 18 hr
E. coli = system: E. coli
Experimental: (§1) In Vitro Minimum Inhibitory Concentration (MIC) Assay
(§2) The following assay is used to determine the efficacy of minocycline compounds against common bacteria. 2 mg of each compound is dissolved in 100 μl of DMSO. The solution is then added to cation-adjusted Mueller Hinton broth (CAMHB), which results in a final compound concentration of 200 μg per ml. The minocycline compound solutions are diluted to 50 μL volumes, with a test compound concentration of 0.098 μg/ml. Optical density (OD) determinations are made from fresh log-phase broth cultures of the test strains. Dilutions are made to achieve a final cell density of 1×10^6 CFU/ml. At OD=1, cell densities for different genera should be approximately:
(§3) 50 μl of the cell suspensions are added to each well of microtiter plates. The final cell density should be approximately 5×10^5 CFU/ml. These plates are incubated at 35° C. in an ambient air incubator for approximately 18 hr. The plates are read with a microplate reader and are visually inspected when necessary. The MIC is defined as the lowest concentration of the minocycline compound that inhibits growth. Compounds of the invention indicate good inhibition of growth.
(§4) In Table 2, compounds which were good inhibitors of growth of a particular bacteria are indicated with *, compounds which were very good inhibitors of a particular bacteria are indicated with **, and compounds with were particularly good inhibitors of a particular bacteria are indicated with ***.

S. aureus = system: S. aureus
Experimental: as §1, §2, §3, §4

E. hirae = system: E. hirae
Experimental: as §1, §2, §3, §4

SMILES	E. coli (inhibition of growth, MIC assay) (E. coli)	S. aureus (inhibition of growth, MIC assay) (S. aureus)	E. hirae (inhibition of growth, MIC assay) (E. hirae)
CCc1cc(C#CC2=CCCCC2)c(O)c2c1C[C@H]1C[C@H]3[C@H](N(C)C)C(O)=C(C(N)=O)C(=O)[C@@]3(O)C(O)=C1C2=O [Compound HO, 7-Ethyl-9-Cyclohexenylethynyl-Sancycline]	*	***	***
CN(C)[C@@H]1C(O)=C(C(N)=O)C(=O)[C@@]2(O)C(O)=C3C(=O)c4c(O)c(CN)cc(-c5ccccc5)c4C[C@H]3C[C@@H]12 [HE]	*	**	**
CN(C)[C@@H]1C(O)=C(C(N)=O)C(=O)[C@@]2(O)C(O)=C3C(=O)c4c(O)c(CN5C(=O)c6ccccc6C5=O)cc(-c5cccc([N+](=O)[O-])c5)c4C[C@H]3C[C@@H]12 [HK]	*	**	**
CCCc1cc(CN)c(O)c2c1C[C@H]1C[C@H]3[C@H](N(C)C)C(O)=C(C(N)=O)C(=O)[C@@]3(O)C(O)=C1C2=O [HL]	**	**	**
CN(C)[C@@H]1C(O)=C(C(N)=O)C(=O)[C@@]2(O)C(O)=C3C(=O)c4c(O)c(CNC(=O)c5cccnc5)cc(CCC5CCCCC5)c4C[C@H]3C[C@@H]12 [HI]	*	**	**
CCCCCCc1cc(CN)c(O)c2c1C[C@H]1C[C@H]3[C@H](N(C)C)C(O)=C(C(N)=O)C(=O)[C@@]3(O)C(O)=C1C2=O [HS]	***	**	***
CCc1cc(CC)c2c(c1O)C(=O)C1=C(O)[C@]3(O)C(=O)C(C(N)=O)=C(O)[C@@H](N(C)C)[C@@H]3C[C@@H]1C2 [HV]	**	***	***
CN(C)[C@@H]1C(O)=C(C(N)=O)C(=O)[C@@]2(O)C(O)=C3C(=O)c4c(O)c(CNC(=O)CCl)cc(-c5ccccc5)c4C[C@H]3C[C@@H]12 [HN]	*	***	**
CN(C)[C@@H]1C(O)=C(C(N)=O)C(=O)[C@@]2(O)C(O)=C3C(=O)c4c(O)c(C(C)(C)C)cc(-c5cccc([N+](=O)[O-])c5)c4C[C@H]3C[C@@H]12 [HP]	*	**	***
CN(C)[C@@H]1C(O)=C(C(N)=O)C(=O)[C@@]2(O)C(O)=C3C(=O)c4c(O)c(-c5ccc6c(c5)OCO6)cc(-c5ccc6c(c5)OCO6)c4C[C@H]3C[C@@H]12 [Compound HZ, 7,9-Bis(3,4-Methylenedioxyphenyl)-Sancycline]	*	***	**
CN(C)[C@@H]1C(O)=C(C(N)=O)C(=O)[C@@]2(O)C(O)=C3C(=O)c4c(O)c(CN5C(=O)c6ccccc6C5=O)cc(CN5C(=O)c6ccccc6C5=O)c4C[C@H]3C[C@@H]12 [HB]	*	**	**
CN(C)[C@@H]1C(O)=C(C(N)=O)C(=O)[C@@]2(O)C(O)=C3C(=O)c4c(O)c(CNC(=O)C5CCCO5)cc(-c5ccc(F)cc5)c4C[C@H]3C[C@@H]12 (stereo partly drawn) [HR]	*	**	**
CCc1cc(CN)c(O)c2c1C[C@H]1C[C@H]3[C@H](N(C)C)C(O)=C(C(N)=O)C(=O)[C@@]3(O)C(O)=C1C2=O [HG]	*	**	*
CCCCc1cc(CN)c(O)c2c1C[C@H]1C[C@H]3[C@H](N(C)C)C(O)=C(C(N)=O)C(=O)[C@@]3(O)C(O)=C1C2=O [HQ]	**	**	**
CC(=O)NCc1cc(-c2ccc(F)cc2)c2c(c1O)C(=O)C1=C(O)[C@]3(O)C(=O)C(C(N)=O)=C(O)[C@@H](N(C)C)[C@@H]3C[C@@H]1C2 [HT]	*	**	**
CCc1cc(CNC(=O)c2cccnc2)c(O)c2c1C[C@H]1C[C@H]3[C@H](N(C)C)C(O)=C(C(N)=O)C(=O)[C@@]3(O)C(O)=C1C2=O [HF]	*	*	**
CC(=O)NCc1cc(-c2ccccc2)c2c(c1O)C(=O)C1=C(O)[C@]3(O)C(=O)C(C(N)=O)=C(O)[C@@H](N(C)C)[C@@H]3C[C@@H]1C2 [HX]	*	**	***
CCCCCc1cc(CN2C(=O)c3ccccc3C2=O)c(O)c2c1C[C@H]1C[C@H]3[C@H](N(C)C)C(O)=C(C(N)=O)C(=O)[C@@]3(O)C(O)=C1C2=O [HU]	*	**	***
CCc1cc(C#Cc2ccc(OC)cc2)c(O)c2c1C[C@H]1C[C@H]3[C@H](N(C)C)C(O)=C(C(N)=O)C(=O)[C@@]3(O)C(O)=C1C2=O [HW]	*	**	**
CN(C)[C@@H]1C(O)=C(C(N)=O)C(=O)[C@@]2(O)C(O)=C3C(=O)c4c(O)c(CN)cc(-c5ccc(F)cc5)c4C[C@H]3C[C@@H]12 [HM]	**	**	**
COc1ccc(C#Cc2cc(C#Cc3ccc(OC)cc3)c3c(c2O)C(=O)C2=C(O)[C@]4(O)C(=O)C(C(N)=O)=C(O)[C@@H](N(C)C)[C@@H]4C[C@@H]2C3)cc1 [HC]	*	*	*
CN(C)[C@@H]1C(O)=C(C(N)=O)C(=O)[C@@]2(O)C(O)=C3C(=O)c4c(O)c(CN)cc(-c5cccc([N+](=O)[O-])c5)c4C[C@H]3C[C@@H]12 [HJ]	*	**	**
CC#Cc1cc(C#CC)c2c(c1O)C(=O)C1=C(O)[C@]3(O)C(=O)C(C(N)=O)=C(O)[C@@H](N(C)C)[C@@H]3C[C@@H]1C2 [IA]	*	*	*
